Experimental data: US10464907B2, “Compound having HSP90 inhibitory activity or pharmaceutically acceptable salt thereof, and medical use thereof” (priority 2016, dated 2019)
Like-named read-outs stand apart in the source and are kept apart here.

Key:
LogP = assay type: physicochemical; conditions: called measured values of LogP
Description: All experimental data were analyzed using Prism software (version 5.0, Graphpad Software, San Diego, Calif.). In addition, tPSA (Topological Polar Surface Area) calculated using Chemdraw software and the measured values of LogP are shown in Tables 1 and 2 below.

H1975 [1] = assay: MTS cell proliferation / survival assay; assay type: cell-based
Description: Sk-Br3 (Korean cell line bank), a breast cancer cell, and H1975 cell (ATCC), a nonsmall cell lung cancer, were cultured in RPMI 1640 containing 25 mM HEPES (4-(2-hydroxyethyl)-1-piperazineethanesulfonic acid) and RPMI 1640 containing L-glutamine (containing streptomycin ([…]), penicillin (100 units/mL) and 10% fetal bovine serum (FBS)).
The cells were cultured under a humidified atmosphere of 37° C. and 5% CO2.
Next, non-metastatic lung cancer cells were treated with Compound 17 and the cell proliferation rate or cell survival rate was measured by MTS [3-(4,5-dimethylthiazol-2-yl)-5-(3-carboxymethoxyphenyl)-2-2H-tetrazolium, inner salt] analysis.
Cells were dispensed in 96-well plates at 3000 cell/well (Sk-Br3) and 2000 cell/well (H1975), and 100 μL of the medium was added per well and then was incubated overnight.
Cell proliferation was evaluated using the Promega Cell Titer 96 Aqueous One Solution cell proliferation assay.
After compound and cell culture, 20 μL of assay substrate solution was added to each well and incubated at 37° C. for an additional 1 hour.
Cell proliferation was confirmed by measuring the absorbance at 490 nm using a microplate reader (Tecan Infinite F200 Proplate reader).

[2] = system: HSP90 client protein of EGFR, Her2, Met, Akt, c-Raf, Cpk4; assay: Protein expression analysis (western blotting), Compound 17; assay type: cell-based; conditions: 24 hours, FIG. 4
Description: Next, the cells were dispensed into 100 mm culture dishes (1×10^6/dish) and adhered to the bottom surface overnight. Compound 17 at a concentration of 0.05, 0.1, 0.5 or 1 μM was added to the cells, followed by further culture for 24 hours.
In addition, cells were treated with DMSO (1%) or geladinamycin (1 μM) as a control and cultured for 24 hours.
The cultured cells were harvested and lysed in ice-cold lysis buffer (23 mM Tris-HCl pH 7.6, 130 mM NaCl, 1% NP40, 1% sodium deoxycholate, 0.1% SDS (sodium dodecylsulfate)), and 30 μg of the lysate was separated by SDS-PAGE (SDS-polyacrylamide gel electrophoresis) and transferred to a PVDF membrane (Bio-Rad).
Membranes were blocked with TBST (Tween 20 containing Tris-Buffered Saline) containing 5% skim milk and incubated with the respective primary antibodies [EGFR (Epidermal growth factor receptor), Her2 (human epidermal growth factor receptor type 2), Met, N-cadherin, E-cadherin, α-tubulin, acetyl-α-tubulin, protein kinase B (Akt), c-Raf, Cdk4 (Cyclin-dependent kinase 4), HSP90, HSP70, PARP (Poly ADT-ribose Polymerase), caspase 3, cleaved caspase 3, truncated caspase 8, B-cell lymphoma 2 (Bcl-2), Bax or β-Actin, purchased from Cell Signaling Technology (USA)].
After binding to a secondary antibody conjugated with horseradish peroxidase, the protein was visualized by ECL (electrochemiluminescence, GE healthcare, USA).

H1975 [3] = assay: H1975 colony formation (clogenic assay); assay type: cell-based; conditions: 0.05 μM, 3 weeks, FIG. 3
Description: H1975 cells were treated with Compound 17 at a concentration of 0.05 or 0.5 μM for 3 weeks and then clogenic assay was performed.
First, RPMI1640 medium (10% FBS, 0.48% agar) was added to a 6-well plate and hardened, and then, 10000 cells (H1975) were dispensed in a medium containing RPMI1640 medium (10% FBS, 0.33% agar) and solidified. After solidification, the cells were treated with compound at a concentration of 0.05 or 0.5 μM for 24 hours, followed by culturing for 3 weeks, and then colony formation was confirmed using a crystal violet staining solution.

[4] = system: HSP90 client proteins (Her2, EGFR, Met, Akt, c-Raf) and HSP70 in H1975 cells; assay: Analysis of protein expression (western blot), Compound 21f; assay type: cell-based
Description: Compound 21f having good efficacy was selected and HSP90 client protein proliferation effect in the same cell line was confirmed, in which the HSP90 client proteins were Her2 (human EGFR-related 2), EGFR (epidermal growth factor receptor), Met and c-Raf were used.
H1975 cells resistant to Gefitinib were cultured in a medium supplemented with 10% fetal bovine serum (FBS) for 24 hours, and the cells were detached, harvested and diluted with a RPMI 1640 medium so as to be 5×10^5 cells/well. Each 5 mL of the suspension was added to […] culture dish and cultured for 24 hours. Then, the medium was changed to the culture solution treated with each compound of concentration (21f: 0, 0.05, 0.1, 0.5 or 1 μM, GA: 1 μM), and cultured for 24 hours. After culture, the cells were harvested and centrifuged at 1300 rpm for 5 minutes at 4° C., and the supernatant was removed. The pellet was washed with phosphate buffered saline, centrifuged once again under the same conditions, and the supernatant was removed. Lysis buffer was added to the remaining pellet and lysed by vortexing at 5 minute intervals for 30 minutes. The supernatant was separated by centrifugation at 16000 rcf for 4 minutes at 4° C., and proteins were quantified using BCA ([…]) kit. SDS-PAGE (sodium dodecylsulfate-polyacrylamide gel electrophoresis) was performed using 10, 12% running gel and 4% stacking gel (10 mA per gel). The separated proteins were transferred to an immunoblot PVDF membrane (polyvinylidene fluoride membrane) at 100 V for 75 minutes. The membranes were blocked with 5% skim milk solution for 2 hours and then added a primary antibody diluted in the ratio of 1: 750-1,000 in 0.1% tween-20 solution and reacted at 4° C. for 12 hours. After washing three times with TBS-T (Tris-buffered saline and Tween 20 containing Tween 20) and detected with an image analyzer using ECL (enhanced chemiluminescence) solution.

H1975 cells = assay: MTS cell viability in H1975 cells resistant to Gefitinib; assay type: cell-based; conditions: H1975, 3 days
Description: To confirm the cell viability according to the concentration of the compound synthesized in H1975 cells (ATCC) resistant to Gefitinib, MTS [3-(4,5-dimethylthiazol-2-yl)-5-[…]carboxymethoxyphenyl)-2-(4-sulfophenyl)-2H-tetrazolium, inner salt] analysis was performed. When the cells were cultured so as to occupy 80% of the bottom of the culture dish, the cells were detached and diluted with RPMI 1640 medium to a concentration of 1.5×10^3 cells/well. Each 100 μL of the suspension was added to each well of a 96-well plate and cultured for 14 hours. Then, the medium was changed to the culture solution treated with compound of each concentration each concentration (1a-g: 0, 1, 5, 10, 30, 50 or 100 μM, 14a-I, 16a, b, 21a-f: 0, 0.01, 0.1, 1, 5, 10, 30, 50, 70 or 100 μM), and cultured for 3 days. Each 20 μL of the MTS solution was dispensed into each well and reacted for 1 hour at 37° C. in an incubator supplied with 5% CO2.

HSP90α = HSP90α (Homo sapiens (Human), UniProt P07900); assay: Fluorescence polarization assay, binding ability to HSP90, benzamide compounds; conditions: GA-FITC 100 nM; read-out: HSP90 FP) (IC50; nM)
Description: 1 M dithiothreitol (DTT), 10 mg/m: BGG (bovine gamma globulin) were added to hexafluorobenzene (HFB) buffer (20 mM HEPES pH 7.3, 50 mM KCl, 5 mM MgCl2, 20 mM Na2MoO4, 0.01% NP4O, 3rd distilled water) and mixed. Then, 100 nM […] (GA)-FITC (Fluorescein isothiocyanate) was added and reacted at room temperature for 10 minutes. Each 100 μL of the mixture was dispensed into the control wells of a 96-well plate, 2 μL of HSP90α was added to the remaining mixture, and each 100 μL of the other wells was dispensed. […] The binding ability of the compound to HSP90 was expressed as mP (millipolarization unit=1000 mP unit).

Row | Compound | logP (LogP) | cell death (cell survival) (H1975 [1]; 72 hours, FIG. 2B) | IC50 (H1975 [1]; Homo sapiens, NCI-H1975, read-out: IC50 for H1975) | inhibition at 10 µM (H1975 [1]; Homo sapiens, NCI-H1975, read-out: Inhibition rate at 10 μM (%)) | inhibition at 30 µM (H1975 [1]; Homo sapiens, NCI-H1975, read-out: Inhibition rate at 30 μM (%)) | proliferation rate of the cells (H1975 [1]; non-small cell lung cancer cells, 1, 2 and 3 days, FIG. 2A) | HSP protein inhibition / degradation of HSP90 client protein ([2]; 0.05-1 μM) | concentration at which most of the client proteins were denatured [2] | colony formation of H1975 (H1975 [3]) | expression of HSP90 client proteins ([4]; H1975, 0.05-1 μM, 24 hours, FIG. 5) | concentration at which expression of HSP70 was increased ([4]; H1975, 24 hours) | concentration at which expression was significantly decreased: EGFR ([4]; H1975, 24 hours) | concentration at which expression was significantly decreased: Her2, Met, and Akt ([4]; H1975, 24 hours) | EC50 (H1975 cells; read-out: H1975 (EC50; μM)) | EC50 (H1975 cells; read-out: H1975 EC50) | IC50 (HSP90α)
1 | CC(C)c1cc(C(=O)N2CCN(C)CC2c2ccccc2)c(O)cc1O (stereo not shown) [Compound 17, (2,4-dihydroxy-5-isopropylphenyl)(4-methyl-2-phenylpiperazin-1-yl)methanone] | 3.8 | cell death was also observed | 98000 nM | 72.1% | 77.6% | inhibited in a concentration-dependent manner | inhibited HSP protein in concentration-dependent manner | 500 nM | inhibited | – | – | – | – | – | – | –
2 | CCCNC(=O)c1ccc(CN(C)C(=O)c2cc(C(C)C)c(O)cc2O)cc1 [Compound 21f, 2,4-dihydroxy-5-isopropyl-N-methyl-N-(4-(propylcarbamoyl)benzyl) benzamide] | – | – | – | – | – | – | – | – | – | inhibited in a concentration-dependent manner | 0.5 µM | 0.1 µM | 0.5 µM | 0.42 µM | 0.42 µM | 5.3 nM
